This is an account of results in patent US6703412B1 (priority 2002, dated 2004).

Data set [1] concerns sleeplessness. Nature of the data set: Example 1: melatonin capsules for subjects having difficulty falling asleep at normal bedtime. It is filed as in vivo, human. Particulars: 1.5 mg capsules after one hour of trying to fall asleep.
The next data set relates to mice. Conditions: mice given 800 mg/kg; cited from earlier work.
The subject of data set [2] is sleeplessness. The data set is described as follows: Example 2: melatonin capsules for subjects who awake midway during normal sleep period. It is filed as in vivo, human. Particulars: 1.5 mg capsules after 15 minutes of trying to fall back asleep. The source says: Subjects are those who awake at about midway during their normal sleep period and once awake have trouble falling back asleep.

For data set [3] the following is noted: 2-100 mg doses, man; cited from earlier work.

Consider `COc1ccc2[nH]cc(CCNC(C)=O)c2c1` [Melatonin, N-acetyl-5-methyoxytryptamine], for which, in the data set with sleeplessness [1], the sleep maintenance result was “sleep through the night”; the state on awakening entry was “alert, without any decrement in faculties”; the “time to fall asleep” value is ≤ 20 min. Also, the death entry with mice was “failed to produce death”. Moreover, in the data set with sleeplessness [2], the sleep maintenance result is listed as “sleep through the remainder of the night”; the state on awakening result is “refreshed, and not sleepy or drowsy”; the “time to fall asleep” value is ≤ 20 min; the time until awakening was in the range of 3 to 4 h. Also, in data set [3], the biological half-life is listed as 32-48 minutes.
